Results taken from patent US11993599B2, “Therapeutic compounds” (Genentech, Inc., priority 2021, dated 2024).

Experiments:
[1] = biological target: T1, BRG1 (Homo sapiens, UniProt P51532); test: Immunofluorescence assay for BRG1 degradation in SW1573 cells; format: cell-based; conditions: 20 hours incubation; for DC50: immunofluorescence mean nuclear signal, read-out: BRG1 IF Degradation IC50; for Dmax: SW1573, 20 h, normalized to a known degrader control, read-out: BRG1 IF Degradation Sinf (%)
T1 construct: either BRM primary antibody (Cell signaling Cat #11966) or BRG primary antibody (Abcam, ab 110641); endogenous in cells; host or cells: SW1573
T1 sequence (P51532 whole entry): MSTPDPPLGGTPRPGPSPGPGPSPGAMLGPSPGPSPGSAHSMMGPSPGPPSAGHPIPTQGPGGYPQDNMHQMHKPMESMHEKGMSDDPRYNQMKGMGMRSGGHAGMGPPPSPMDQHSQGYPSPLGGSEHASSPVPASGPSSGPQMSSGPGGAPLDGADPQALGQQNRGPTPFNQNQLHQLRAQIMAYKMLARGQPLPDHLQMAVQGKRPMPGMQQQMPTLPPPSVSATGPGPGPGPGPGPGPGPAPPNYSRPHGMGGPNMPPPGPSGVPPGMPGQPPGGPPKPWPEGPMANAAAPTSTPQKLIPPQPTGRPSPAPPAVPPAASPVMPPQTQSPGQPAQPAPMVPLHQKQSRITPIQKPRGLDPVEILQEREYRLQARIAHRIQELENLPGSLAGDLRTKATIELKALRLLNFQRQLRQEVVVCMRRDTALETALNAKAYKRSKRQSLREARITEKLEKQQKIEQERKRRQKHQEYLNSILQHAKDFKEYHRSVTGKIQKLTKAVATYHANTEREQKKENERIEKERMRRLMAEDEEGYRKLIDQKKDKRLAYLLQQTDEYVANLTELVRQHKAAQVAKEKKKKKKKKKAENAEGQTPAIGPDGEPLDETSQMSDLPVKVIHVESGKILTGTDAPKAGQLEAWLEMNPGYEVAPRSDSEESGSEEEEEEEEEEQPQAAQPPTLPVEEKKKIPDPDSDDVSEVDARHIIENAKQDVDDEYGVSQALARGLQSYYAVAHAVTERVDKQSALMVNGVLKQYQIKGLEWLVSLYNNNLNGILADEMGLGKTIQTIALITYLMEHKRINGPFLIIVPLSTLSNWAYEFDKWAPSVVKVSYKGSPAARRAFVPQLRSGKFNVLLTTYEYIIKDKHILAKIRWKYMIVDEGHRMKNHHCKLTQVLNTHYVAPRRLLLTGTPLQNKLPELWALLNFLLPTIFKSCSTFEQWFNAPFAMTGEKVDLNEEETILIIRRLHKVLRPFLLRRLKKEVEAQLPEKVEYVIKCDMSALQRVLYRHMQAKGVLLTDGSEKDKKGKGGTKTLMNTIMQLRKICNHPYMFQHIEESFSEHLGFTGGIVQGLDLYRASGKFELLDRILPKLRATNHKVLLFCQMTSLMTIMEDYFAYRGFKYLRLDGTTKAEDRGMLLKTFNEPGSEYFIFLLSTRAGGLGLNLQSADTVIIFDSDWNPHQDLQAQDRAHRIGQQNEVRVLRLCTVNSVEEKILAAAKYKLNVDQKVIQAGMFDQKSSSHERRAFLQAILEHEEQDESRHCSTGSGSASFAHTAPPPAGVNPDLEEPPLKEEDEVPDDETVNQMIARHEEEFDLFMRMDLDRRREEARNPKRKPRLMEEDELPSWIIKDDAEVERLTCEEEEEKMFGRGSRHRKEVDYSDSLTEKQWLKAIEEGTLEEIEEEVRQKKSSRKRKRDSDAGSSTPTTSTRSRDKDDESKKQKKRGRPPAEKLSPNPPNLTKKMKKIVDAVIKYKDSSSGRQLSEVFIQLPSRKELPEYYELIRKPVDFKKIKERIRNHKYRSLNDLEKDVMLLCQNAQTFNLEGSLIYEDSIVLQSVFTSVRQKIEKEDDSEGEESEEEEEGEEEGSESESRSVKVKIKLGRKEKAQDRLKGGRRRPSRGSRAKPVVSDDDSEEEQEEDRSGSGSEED
Protocol: (§1) Example B-2: Immunofluorescence Assay for BRM and BRG1 Degraders
(§2) SW1573 cells were seeded at 3000 cells/well in 384 well plates. The next day, compounds were added using an Echo dispenser. After 20 hours of incubation with compound, cells were fixed with 4% formaldehyde then permeabilized with 0.2% Triton X-100 and blocked with 10% FCS. Fixed and permeabilized cells were treated overnight at 4° C. with either BRM primary antibody (Cell signaling Cat #11966) or BRG primary antibody (Abcam, ab 110641). Finally, cells were treated with fluorescently labeled secondary antibodies for 1 hr (Donkey anti-Rabbit IgG AF488, Life Technologies, A21206) and Hoechst nuclear stain (#H3569) was added for 30 minutes. Cells were washed with PBS in between each step and before imaging on an Opera Phenix microscope (Perkin Elmer). Harmony software (Perking Elmer) was used to quantify the mean nuclear signaling intensity of BRM or BRG signaling per cell in each well. Dose responses were determined from the concentration dependent response of mean nuclear signal intensity with data normalized to a known degrader control. Dose response curves were fit to a floating maximum to allow for calculation of the Dmax.
(§3) Note that, in Table 5, the “Compound Number” corresponds to that used in Table 1. In Table 5, for BRM and BRG1 IF degradation IC50 (μM): A indicates <0.010 μM, B indicates 0.010-0.10 μM, and C indicates >0.10 μM; and for BRM and BRG1 IF degradation Sinf % D indicates 0-−30%, E indicates −30%-−70%, F indicates −71%-−120% and ND indicates the value was not determined.

[2] = biological target: BRM (Homo sapiens, UniProt P51531); test: Immunofluorescence assay for BRM degradation in SW1573 cells; format: cell-based; set-up: treated overnight at 4° C. with either BRM primary antibody (Cell signaling Cat #11966) or BRG primary antibody; endogenous in cells; host or cells: SW1573; conditions: 20 hours incubation; for DC50: immunofluorescence mean nuclear signal, read-out: BRM IF Degradation IC50; for BRM IF Degradation Sinf (%): normalized to a known degrader control
BRM, sequence (P51531 whole entry): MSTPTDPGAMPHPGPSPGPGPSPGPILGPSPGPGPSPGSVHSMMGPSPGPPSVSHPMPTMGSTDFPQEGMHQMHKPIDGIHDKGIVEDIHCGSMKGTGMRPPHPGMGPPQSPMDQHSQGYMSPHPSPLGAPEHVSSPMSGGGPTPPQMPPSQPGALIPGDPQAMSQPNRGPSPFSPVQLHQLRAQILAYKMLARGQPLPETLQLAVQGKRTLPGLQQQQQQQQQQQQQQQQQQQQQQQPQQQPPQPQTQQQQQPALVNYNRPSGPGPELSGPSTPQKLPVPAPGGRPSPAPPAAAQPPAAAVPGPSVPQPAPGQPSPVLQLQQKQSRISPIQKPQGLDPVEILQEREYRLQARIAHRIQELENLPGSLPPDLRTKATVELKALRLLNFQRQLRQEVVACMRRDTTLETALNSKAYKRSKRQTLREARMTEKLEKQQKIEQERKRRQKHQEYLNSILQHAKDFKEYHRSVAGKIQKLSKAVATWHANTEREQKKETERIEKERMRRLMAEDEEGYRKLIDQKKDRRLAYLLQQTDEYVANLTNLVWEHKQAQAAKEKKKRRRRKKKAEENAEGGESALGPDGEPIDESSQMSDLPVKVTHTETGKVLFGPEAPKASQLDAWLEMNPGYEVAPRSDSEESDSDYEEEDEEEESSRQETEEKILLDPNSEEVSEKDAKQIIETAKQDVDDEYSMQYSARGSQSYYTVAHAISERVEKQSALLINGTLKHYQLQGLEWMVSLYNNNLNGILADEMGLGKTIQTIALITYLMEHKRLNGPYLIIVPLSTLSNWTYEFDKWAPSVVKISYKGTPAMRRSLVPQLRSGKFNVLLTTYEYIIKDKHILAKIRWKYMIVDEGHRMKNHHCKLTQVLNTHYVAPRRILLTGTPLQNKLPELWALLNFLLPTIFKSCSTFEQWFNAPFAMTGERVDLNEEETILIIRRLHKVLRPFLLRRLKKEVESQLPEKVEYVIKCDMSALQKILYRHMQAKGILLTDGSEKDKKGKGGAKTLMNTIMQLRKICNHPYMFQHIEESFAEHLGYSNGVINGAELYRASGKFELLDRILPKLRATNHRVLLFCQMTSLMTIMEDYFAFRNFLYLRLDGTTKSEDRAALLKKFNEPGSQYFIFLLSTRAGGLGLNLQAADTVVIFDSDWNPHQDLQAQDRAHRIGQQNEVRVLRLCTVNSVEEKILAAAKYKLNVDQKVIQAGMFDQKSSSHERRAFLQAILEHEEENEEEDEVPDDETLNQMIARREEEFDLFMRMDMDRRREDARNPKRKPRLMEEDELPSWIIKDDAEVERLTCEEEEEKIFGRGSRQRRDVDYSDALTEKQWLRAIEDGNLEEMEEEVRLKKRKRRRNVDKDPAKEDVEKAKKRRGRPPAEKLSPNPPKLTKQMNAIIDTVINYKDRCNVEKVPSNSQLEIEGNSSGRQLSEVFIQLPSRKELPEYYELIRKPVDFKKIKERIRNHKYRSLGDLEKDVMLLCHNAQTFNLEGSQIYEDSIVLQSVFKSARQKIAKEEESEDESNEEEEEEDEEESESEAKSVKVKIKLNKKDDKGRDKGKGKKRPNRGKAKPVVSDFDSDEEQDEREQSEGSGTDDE
Protocol: as §1, §2, §3

Compound: Nc1nnc(-c2ccccc2O)cc1N1CC2CCC(C1)N2c1ccnc(C#CCN2CCC23CCC3)c1 [Compound 235, 2-[6-amino-5-[8-[2-[3-(1-azaspiro[3.3]heptan-1-yl)prop-1-ynyl]-4-pyridyl]-3,8-diazabicyclo[3.2.1]octan-3-yl]pyridazin-3-yl]phenol]
- DC50 [1]: < 10 nM
- Dmax [1]: 30 to 70%
- DC50 [2]: 10 to 100 nM
- BRM IF Degradation Sinf (%) [2]: F (F indicates −71%-−120%)

Compound: Nc1nnc(-c2ccccc2O)cc1N1CC2CCC(C1)N2c1ccnc(C#CCNC(=O)C2CCNCC2)c1 [Compound 35, N-[3-[4-[3-[3-amino-6-(2-hydroxyphenyl)pyridazin-4-yl]-3,8-diazabicyclo[3.2.1]octan-8-yl]-2-pyridyl]prop-2-ynyl]piperidine-4-carboxamide]
- DC50 [1]: > 100 nM
- DC50 [2]: > 100 nM
- BRM IF Degradation Sinf (%) [2]: E (E indicates −30%-−70%)

Compound: Nc1nnc(-c2ccccc2O)cc1N1CC2CCC(C1)N2c1ccnc(C#CCN2CC(O)C2)c1 [Compound 142, 1-[3-[4-[3-[3-amino-6-(2-hydroxyphenyl)pyridazin-4-yl]-3,8-diazabicyclo[3.2.1]octan-8-yl]-2-pyridyl]prop-2-ynyl]azetidin-3-ol]
- DC50 [1]: 10 to 100 nM
- Dmax [1]: 30 to 70%
- DC50 [2]: 10 to 100 nM
- BRM IF Degradation Sinf (%) [2]: E (E indicates −30%-−70%)

Compound: Nc1nnc(-c2ccccc2O)cc1N1CC2CCC(C1)N2c1ccnc(C#CCN2CCCC(O)CC2)c1 (stereo not shown) [Compound 191, 1-[3-[4-[3-[3-amino-6-(2-hydroxyphenyl)pyridazin-4-yl]-3,8-diazabicyclo[3.2.1]octan-8-yl]-2-pyridyl]prop-2-ynyl]azepan-4-ol]
- DC50 [1]: < 10 nM
- Dmax [1]: 71 to 120%
- DC50 [2]: < 10 nM
- BRM IF Degradation Sinf (%) [2]: F (F indicates −71%-−120%)

Compound: CS(=O)(=O)N1CCC2(CN(CC#Cc3cc(N4C5CCC4CN(c4cc(-c6ccccc6O)nnc4N)C5)ccn3)C2)C1 [Compound 236, 2-[6-amino-5-[8-[2-[3-(7-methylsulfonyl-2,7-diazaspiro[3.4]octan-2-yl)prop-1-ynyl]-4-pyridyl]-3,8-diazabicyclo[3.2.1]octan-3-yl]pyridazin-3-yl]phenol]
- DC50 [1]: 10 to 100 nM
- Dmax [1]: 0 to 30%
- DC50 [2]: > 100 nM
- BRM IF Degradation Sinf (%) [2]: F (F indicates −71%-−120%)

Compound: Nc1nnc(-c2ccccc2O)cc1N1CC2CCC(C1)N2c1ccnc(C#CCN2CCC(O)C2)c1 (stereo not shown) [Compound 52, 1-[3-[4-[3-[3-amino-6-(2-hydroxyphenyl)pyridazin-4-yl]-3,8-diazabicyclo[3.2.1]octan-8-yl]-2-pyridyl]prop-2-ynyl]pyrrolidin-3-ol]
- DC50 [1]: 10 to 100 nM
- Dmax [1]: 30 to 70%
- DC50 [2]: 10 to 100 nM
- BRM IF Degradation Sinf (%) [2]: E (E indicates −30%-−70%)

Compound: N#CCC1CCN(CC#Cc2cc(N3C4CCC3CN(c3cc(-c5ccccc5O)nnc3N)C4)ccn2)CCC1(F)F (stereo not shown) [Compound 206, 2-[1-[3-[4-[3-[3-amino-6-(2-hydroxyphenyl)pyridazin-4-yl]-3,8-diazabicyclo[3.2.1]octan-8-yl]-2-pyridyl]prop-2-ynyl]-5,5-difluoro-azepan-4-yl]acetonitrile]
- DC50 [1]: > 100 nM
- DC50 [2]: 10 to 100 nM
- BRM IF Degradation Sinf (%) [2]: E (E indicates −30%-−70%)

Compound: CC1CN(CC#Cc2cc(N3C4CCC3CN(c3cc(-c5ccccc5O)nnc3N)C4)ccn2)CCN1 (stereo not shown) [Compound 40, 2-[6-amino-5-[8-[2-[3-(3-methylpiperazin-1-yl)prop-1-ynyl]-4-pyridyl]-3,8-diazabicyclo[3.2.1]octan-3-yl]pyridazin-3-yl]phenol]
- DC50 [1]: > 100 nM
- DC50 [2]: > 100 nM
- BRM IF Degradation Sinf (%) [2]: E (E indicates −30%-−70%)

Compound: Nc1nnc(-c2ccccc2O)cc1N1CC2CCC(C1)N2c1ccnc(C#CCN2CC(N3CCOCC3)C2)c1 [Compound 229, 2-[6-amino-5-[8-[2-[3-(3-morpholinoazetidin-1-yl)prop-1-ynyl]-4-pyridyl]-3,8-diazabicyclo[3.2.1]octan-3-yl]pyridazin-3-yl]phenol]
- DC50 [1]: 10 to 100 nM
- Dmax [1]: 30 to 70%
- DC50 [2]: 10 to 100 nM
- BRM IF Degradation Sinf (%) [2]: F (F indicates −71%-−120%)

Compound: Nc1nnc(-c2ccccc2O)cc1N1CC2CCC(C1)N2c1ccnc(C#CCN2CCC3CC2CO3)c1 (stereo not shown) [Compound 104, 2-[6-amino-5-[8-[2-[3-(6-oxa-2-azabicyclo[3.2.1]octan-2-yl)prop-1-ynyl]-4-pyridyl]-3,8-diazabicyclo[3.2.1]octan-3-yl]pyridazin-3-yl]phenol]
- DC50 [1]: < 10 nM
- Dmax [1]: 0 to 30%
- DC50 [2]: < 10 nM
- BRM IF Degradation Sinf (%) [2]: E (E indicates −30%-−70%)

Compound: Nc1nnc(-c2ccccc2O)cc1N1CC2CCC(C1)N2c1ccnc(C#CCN2CCOCC23CC3)c1 [Compound 73, 2-[6-amino-5-[8-[2-[3-(7-oxa-4-azaspiro[2.5]octan-4-yl)prop-1-ynyl]-4-pyridyl]-3,8-diazabicyclo[3.2.1]octan-3-yl]pyridazin-3-yl]phenol]
- DC50 [1]: > 100 nM
- DC50 [2]: > 100 nM
- BRM IF Degradation Sinf (%) [2]: E (E indicates −30%-−70%)

Compound: Nc1nnc(-c2ccccc2O)cc1N1CC2CCC(C1)N2c1ccnc(C#CCN2CCC[C@H]2CO)c1 [Compound 46, 2-[6-amino-5-[8-[2-[3-[(2S)-2-(hydroxymethyl)pyrrolidin-1-yl]prop-1-ynyl]-4-pyridyl]-3,8-diazabicyclo[3.2.1]octan-3-yl]pyridazin-3-yl]phenol]
- DC50 [1]: 10 to 100 nM
- Dmax [1]: 30 to 70%
- DC50 [2]: < 10 nM
- BRM IF Degradation Sinf (%) [2]: E (E indicates −30%-−70%)

Compound: Nc1nnc(-c2ccccc2O)cc1N1CC2CCC(C1)N2c1ccnc(C#CCN2CCCC23CCC3)c1 [Compound 106, 2-[6-amino-5-[8-[2-[3-(5-azaspiro[3.4]octan-5-yl)prop-1-ynyl]-4-pyridyl]-3,8-diazabicyclo[3.2.1]octan-3-yl]pyridazin-3-yl]phenol]
- DC50 [1]: < 10 nM
- Dmax [1]: 30 to 70%
- DC50 [2]: < 10 nM
- BRM IF Degradation Sinf (%) [2]: E (E indicates −30%-−70%)

Compound: CC1(O)CCCN(CC#Cc2cc(N3C4CCC3CN(c3cc(-c5ccccc5O)nnc3N)C4)ccn2)CC1 (stereo not shown) [Compound 244, 1-[3-[4-[3-[3-amino-6-(2-hydroxyphenyl)pyridazin-4-yl]-3,8-diazabicyclo[3.2.1]octan-8-yl]-2-pyridyl]prop-2-ynyl]-4-methyl-azepan-4-ol]
- DC50 [1]: < 10 nM
- Dmax [1]: 30 to 70%
- DC50 [2]: 10 to 100 nM
- BRM IF Degradation Sinf (%) [2]: E (E indicates −30%-−70%)

Compound: CC1(C)CC(O)CCN(CC#Cc2cc(N3C4CCC3CN(c3cc(-c5ccccc5O)nnc3N)C4)ccn2)C1 (stereo not shown) [Compound 213, 1-[3-[4-[3-[3-amino-6-(2-hydroxyphenyl)pyridazin-4-yl]-3,8-diazabicyclo[3.2.1]octan-8-yl]-dimethyl-azepan-4-ol 2-pyridyl]prop-2-ynyl]-6,6-]
- DC50 [2]: 10 to 100 nM
- BRM IF Degradation Sinf (%) [2]: E (E indicates −30%-−70%)

Compound: Nc1nnc(-c2ccccc2O)cc1N1CC2CCC(C1)N2c1ccnc(/C=C/CN2CCCCCC2)c1 [Compound 248, (E)-2-(6-amino-5-(8-(2-(3-(azepan-1-yl)prop-1-en-1-yl)pyridin-4-yl)-3,8-diazabicyclo[3.2.1]octan-3-yl)pyridazin-3-yl)phenol]
- DC50 [2]: < 10 nM
- BRM IF Degradation Sinf (%) [2]: E (E indicates −30%-−70%)

Compound: CC1CCN(CC#Cc2cc(N3C4CCC3CN(c3cc(-c5ccccc5O)nnc3N)C4)ccn2)CCC1=O (stereo not shown) [Compound 198, 1-[3-[4-[3-[3-amino-6-(2-hydroxyphenyl)pyridazin-4-yl]-3,8-diazabicyclo[3.2.1]octan-8-yl]-2-pyridyl]prop-2-ynyl]-5-methyl-azepan-4-one]
- DC50 [2]: < 10 nM
- BRM IF Degradation Sinf (%) [2]: E (E indicates −30%-−70%)

Compound: Nc1nnc(-c2ccccc2O)cc1N1CC2CCC(C1)N2c1ccnc(C#CCN2CCCN(c3ccncc3)CC2)c1 [Compound 204, 2-[6-amino-5-[8-[2-[3-[4-(4-pyridyl)-1,4-diazepan-1-yl]prop-1-ynyl]-4-pyridyl]-3,8-diazabicyclo[3.2.1]octan-3-yl]pyridazin-3-yl]phenol]
- DC50 [2]: 10 to 100 nM
- BRM IF Degradation Sinf (%) [2]: E (E indicates −30%-−70%)

Compound: Nc1nnc(-c2ccccc2O)cc1N1CC2CCC(C1)N2c1ccnc(C#CCN2CC3C4CCC(C4)C32)c1 (stereo not shown) [Compound 220, 2-[6-amino-5-[8-[2-[3-(3-azatricyclo[4.2.1.02,5]nonan-3-yl)prop-1-ynyl]-4-pyridyl]-3,8-diazabicyclo[3.2.1]octan-3-yl]pyridazin-3-yl]phenol]
- DC50 [2]: > 100 nM
- BRM IF Degradation Sinf (%) [2]: E (E indicates −30%-−70%)

Compound: Nc1nnc(-c2ccccc2O)cc1N1CC2CCC(C1)N2c1ccnc(C#CCCN2CCCCC2)c1 [Compound 182, 2-[6-amino-5-[8-[2-[4-(1-piperidyl)but-1-ynyl]-4-pyridyl]-3,8-diazabicyclo[3.2.1]octan-3-yl]pyridazin-3-yl]phenol]
- DC50 [2]: > 100 nM
- BRM IF Degradation Sinf (%) [2]: F (F indicates −71%-−120%)
